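Method: 48-hour compound exposure of cells in 96-well plates, five concentrations, linear interpolation of endpoints. At the TGI there is no net growth.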

Common to all, as to test: DTP human tumour cell line panel, 48 h
The subject of assay [1] is 786-0 renal.
The subject of assay [2] is A549 NSCLC.
Assay [3] deals with HCT-116 colon.
Assay [4] has as its system HOP-18 NSCLC.
Assay [5] has as its system HT29 colon.
Assay [6] relates to K-562 leukemia.
The test system of assay [7] is LOX IMVI melanoma.
Assay [8] has as its system MOLT-4 leukemia.
The subject of assay [9] is NCI-H460 lung.
Assay [10] deals with SK-MEL-28 melanoma.
Assay [11] relates to SN12C renal.
Assay [12] concerns SNB-19 CNS.
Assay [13] deals with TK-10 renal.
Assay [14] concerns UACC-257 melanoma.
For assay [15], the system named is HCC-2998 colon.
The subject of assay [16] is HOP-62 NSCLC.
The subject of assay [17] is RPMI-8226 leukemia.
Assay [18] deals with SR leukemia.
Assay [19] concerns BT-549 breast.
In assay [20] the test system is MDA-MB-435.

As to `CCOP12(OCC)NC(=O)OC1(C(F)(F)F)c1ccccc1O2` (centres undefined), the total growth inhibition concentration (TGI) in assay [1], in assay [2], in assay [3], in [4], in [5] and in assay [6] was over 100 µM each time. For the same molecule, the concentration for total growth inhibition (TGI) in [7], in [8], in [9], in assay [10], in [11] and in assay [12] was over 100 µM each time. Moreover, the TGI in assay [13] and in assay [14] was over 100 µM throughout.
For `Cc1ccc(C(c2c(O)c3ccccc3n(-c3ccccc3)c2=O)c2c(O)c3ccccc3n(-c3ccccc3)c2=O)cc1`, the TGI in assay [1], in assay [2], in assay [15], in [3], in [4] and in [16] was over 100 µM in each case. Moreover, the TGI in [6], in assay [7], in assay [8], in assay [17], in assay [10] and in assay [11] was over 100 µM in each case. Besides, the concentration for total growth inhibition (TGI) in assay [12], in assay [18] and in assay [13] was over 100 µM in each case.
Regarding `COc1ccc(Cc2c(=O)[nH]nc3ccccc23)cc1`, the TGI in assay [1], in assay [2], in [15], in assay [3], in [4] and in assay [16] was over 100 µM in each case. Besides, the total growth inhibition concentration (TGI) in assay [5], in [6], in assay [7], in assay [8], in [9] and in assay [17] was over 100 µM throughout. Moreover, the TGI in assay [10], in assay [11], in assay [12], in assay [13] and in assay [14] was over 100 µM in each case.
For `O=C(O)COc1ccc(C(=O)/C(SS/C(C(=O)c2ccc(OCC(=O)O)c(Cl)c2Cl)=C2\C=C(c3ccc(Cl)cc3)SS2)=C2/C=C(c3ccc(Cl)cc3)SS2)c(Cl)c1Cl`, the concentration for total growth inhibition (TGI) is 26.3 µM in assay [1]; 41.7 µM in assay [2]; 25.3 µM in assay [15]; 22.8 µM in assay [3]; 23 µM in [4]; over 100 µM in assay [16]. Further, the TGI in assay [5] is over 100 µM; in assay [6], 10.7 µM; in [7], 15.3 µM; in assay [8], 12.6 µM; in assay [9] it was 35.6 µM; in assay [17] it was 43.3 µM. Further, the TGI is 56.7 µM in [10]; 1.79 µM in [11]; over 100 µM in assay [12]; over 100 µM in assay [13]; over 100 µM in assay [14].
Consider `Cc1nc(N2N=C(c3ccc(Cl)cc3)CCC2=O)sc1[N+](=O)[O-]`, for which the TGI in assay [1], in assay [2], in [15], in assay [3], in assay [4] and in assay [16] was over 100 µM in each case. Besides, the TGI in [5], in [6], in assay [7], in assay [8], in assay [9] and in [17] was over 100 µM in each case. Further, the TGI in assay [10], in assay [11], in [12], in assay [18], in assay [13] and in assay [14] was over 100 µM throughout.
`Clc1ccc(CCn2cncn2)cc1`: the TGI in assay [1], in [2], in assay [3], in assay [4], in [16] and in assay [5] was over 100 µM throughout. Also, the concentration for total growth inhibition (TGI) in assay [6], in [7], in [8], in assay [9], in assay [17] and in [10] was over 100 µM throughout. In addition, the TGI in assay [11], in assay [18], in [13] and in assay [14] was over 100 µM each time.
Consider `CCOC(=O)C(C(=O)OCC)c1ccc([N+](=O)[O-])o1`, for which the total growth inhibition concentration (TGI) in assay [1] is 13.4 µM; in assay [2], 43.4 µM; in assay [15] it was 31.3 µM; in assay [3], 29 µM; in assay [4] it was 34.2 µM; in [16], over 75.5 µM. In addition, the TGI is 31.2 µM in [5]; over 30.7 µM in assay [6]; 9.41 µM in [7]; 19.8 µM in [8]; 44.9 µM in [9]; 23.6 µM in assay [17]. Moreover, the concentration for total growth inhibition (TGI) in assay [10] is 27.1 µM; in [11] it was 32.2 µM; in [12] it was over 100 µM; in assay [18], over 26.4 µM; in assay [13], 30.8 µM; in assay [14], 28.1 µM.
For the molecule `O=[N+]([O-])c1ccc(Oc2c(Cl)cc(S(=O)(=O)/N=C(\NO)Nc3ccc(Cl)cc3)cc2Cl)c(Cl)c1`, the TGI in assay [1] was found to be 27.8 µM; in assay [2], 32.1 µM; in assay [19], 29 µM; in assay [15], 31.2 µM; in assay [3], 26.2 µM; in assay [16], 30.3 µM. The TGI is 30.5 µM in assay [5]; 35 µM in [6]; 37.8 µM in assay [7]; 31.3 µM in assay [20]; 25.6 µM in assay [8]; 37.2 µM in [9]. Besides, the concentration for total growth inhibition (TGI) was 34.3 µM in assay [17]; 47.6 µM in assay [10]; 27.4 µM in assay [11]; 30.6 µM in assay [12]; 32.6 µM in assay [18]; 29.7 µM in assay [13]. Moreover, in [14], the TGI was 30.8 µM.

Broadly, the TGI is the concentration giving total growth inhibition. Read a low TGI as more potent growth arrest.

Source of the values: PubChem BioAssay (NCI).
